Results published in ChEMBL document CHEMBL5625161, “Pharmacological activity and mechanism of pyrazines” (Eur J Med Chem, 2023).
In brackets after ≈: the same amount, converted by molar mass. One block for each molecule: values may come before it.

How the values were obtained:
[1] = test system: SK-OV-3; assay: Cytotoxicity against human SK-OV-3 cells assessed as reduction in cell growth incubated for 72 hrs by CCK-8 assay; type: functional, cell-based; conditions: SK-OV-3, 72 h
[2] = test system: SW626; assay: Cytotoxicity against human SW626 cells assessed as reduction in cell growth incubated for 72 hrs by CCK-8 assay; type: functional, cell-based; conditions: SW626, 72 h
[3] = test system: OVCAR-5; assay: Cytotoxicity against human OVCAR-5 cells assessed as reduction in cell growth incubated for 72 hrs by CCK-8 assay; type: functional, cell-based; conditions: OVCAR-5, 72 h
[4] = test system: NCI-H460; assay: Cytotoxicity against human NCI-H460 cells assessed as reduction in cell growth incubated for 72 hrs by CCK-8 assay; type: functional, cell-based; conditions: NCI-H460, 72 h
[5] = test system: A549; assay: Cytotoxicity against human A549 cells assessed as reduction in cell growth incubated for 72 hrs by CCK-8 assay; type: functional, cell-based; conditions: A549, 72 h
[6] = test system: NCI-H1299; assay: Cytotoxicity against human NCI-H1299 cells assessed as reduction in cell growth incubated for 72 hrs by CCK-8 assay; type: functional, cell-based; conditions: NCI-H1299, 72 h
[7] = test system: ES-2; assay: Cytotoxicity against human ES2 cells assessed as reduction in cell growth incubated for 72 hrs by CCK-8 assay; type: functional, cell-based; conditions: ES-2, 72 h
[8] = test system: Caco-2; assay: Cytotoxicity against human Caco-2 cells assessed as reduction in cell growth incubated for 72 hrs by CCK-8 assay; type: functional, cell-based; conditions: Caco-2, 72 h
[9] = test system: HEY; assay: Cytotoxicity against human HEY cells assessed as reduction in cell growth incubated for 72 hrs by CCK-8 assay; type: functional, cell-based
[10] = biological target: T1, Fibroblast growth factor receptor 1 (Homo sapiens, UniProt P11362); assay: Inhibition of human recombinant FGFR1 at 10 uM by Enzyme-linked immunosorbent assay relative to control
T1 sequence (P11362 22-822 limits assumed): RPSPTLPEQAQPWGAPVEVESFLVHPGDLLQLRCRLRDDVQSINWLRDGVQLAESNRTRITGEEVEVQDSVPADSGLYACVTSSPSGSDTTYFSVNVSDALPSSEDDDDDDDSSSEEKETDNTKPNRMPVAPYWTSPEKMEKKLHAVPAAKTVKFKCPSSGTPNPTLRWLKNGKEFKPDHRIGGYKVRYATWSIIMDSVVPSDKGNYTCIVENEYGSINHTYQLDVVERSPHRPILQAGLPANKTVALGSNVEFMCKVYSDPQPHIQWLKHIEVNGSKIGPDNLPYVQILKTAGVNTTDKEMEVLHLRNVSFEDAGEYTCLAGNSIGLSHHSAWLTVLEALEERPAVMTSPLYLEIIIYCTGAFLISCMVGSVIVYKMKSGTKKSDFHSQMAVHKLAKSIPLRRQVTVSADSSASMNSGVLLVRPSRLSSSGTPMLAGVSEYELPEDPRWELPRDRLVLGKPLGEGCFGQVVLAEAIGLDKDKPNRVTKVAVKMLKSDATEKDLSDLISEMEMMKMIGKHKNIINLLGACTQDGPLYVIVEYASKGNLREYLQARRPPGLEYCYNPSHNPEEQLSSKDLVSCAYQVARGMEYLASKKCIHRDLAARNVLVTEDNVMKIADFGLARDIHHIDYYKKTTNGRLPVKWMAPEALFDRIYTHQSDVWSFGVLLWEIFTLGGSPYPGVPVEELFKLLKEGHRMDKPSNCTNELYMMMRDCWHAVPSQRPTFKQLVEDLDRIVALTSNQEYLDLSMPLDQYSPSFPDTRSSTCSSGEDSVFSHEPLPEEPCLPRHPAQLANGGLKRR

[11] = biological target: T1, Fibroblast growth factor receptor 1; assay: Inhibition of human recombinant FGFR1 at 1 uM by Enzyme-linked immunosorbent assay relative to control
[12] = biological target: Cholinesterase (Homo sapiens, UniProt P06276); assay: Inhibition of BchE (unknown origin)
Chain of Cholinesterase (P06276 whole entry): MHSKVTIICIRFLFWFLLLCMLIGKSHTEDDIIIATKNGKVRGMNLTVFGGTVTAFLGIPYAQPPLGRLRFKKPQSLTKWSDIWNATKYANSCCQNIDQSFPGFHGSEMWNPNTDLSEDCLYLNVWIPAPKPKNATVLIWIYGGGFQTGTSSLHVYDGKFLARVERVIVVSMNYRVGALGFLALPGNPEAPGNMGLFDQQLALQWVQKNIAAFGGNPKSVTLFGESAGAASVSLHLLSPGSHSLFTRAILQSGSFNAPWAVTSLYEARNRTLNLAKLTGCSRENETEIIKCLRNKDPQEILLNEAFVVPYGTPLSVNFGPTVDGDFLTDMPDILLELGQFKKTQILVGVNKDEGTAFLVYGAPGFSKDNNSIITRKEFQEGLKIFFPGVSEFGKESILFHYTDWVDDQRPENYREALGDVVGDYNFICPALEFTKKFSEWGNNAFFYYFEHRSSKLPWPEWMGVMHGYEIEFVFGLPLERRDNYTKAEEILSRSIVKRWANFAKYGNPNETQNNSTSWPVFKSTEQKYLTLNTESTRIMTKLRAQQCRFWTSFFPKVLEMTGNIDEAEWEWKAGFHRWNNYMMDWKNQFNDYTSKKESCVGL

[13] = biological target: Acetylcholinesterase (Homo sapiens, UniProt P22303); assay: Inhibition of AChE (unknown origin)
Chain of Acetylcholinesterase (P22303 whole entry): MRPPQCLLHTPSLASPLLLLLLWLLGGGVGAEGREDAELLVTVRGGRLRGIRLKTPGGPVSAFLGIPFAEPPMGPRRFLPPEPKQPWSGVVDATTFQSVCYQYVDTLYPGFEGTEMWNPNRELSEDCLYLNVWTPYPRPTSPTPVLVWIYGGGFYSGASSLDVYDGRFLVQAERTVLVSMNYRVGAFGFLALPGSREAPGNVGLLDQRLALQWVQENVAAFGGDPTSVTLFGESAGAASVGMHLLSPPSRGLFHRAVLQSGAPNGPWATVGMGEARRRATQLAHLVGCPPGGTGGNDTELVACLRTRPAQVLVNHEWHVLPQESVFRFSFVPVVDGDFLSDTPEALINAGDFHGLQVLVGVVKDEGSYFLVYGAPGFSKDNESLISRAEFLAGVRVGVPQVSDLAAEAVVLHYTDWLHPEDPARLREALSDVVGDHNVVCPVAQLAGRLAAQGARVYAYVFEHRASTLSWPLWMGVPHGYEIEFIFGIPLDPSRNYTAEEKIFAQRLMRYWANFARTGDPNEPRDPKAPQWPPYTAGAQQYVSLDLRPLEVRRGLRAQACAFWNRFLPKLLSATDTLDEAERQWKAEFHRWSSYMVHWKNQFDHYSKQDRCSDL

[14] = test system: HCT-116; assay: Antiproliferative activity against human HCT-116 cells assessed reduction in cell growth incubated for 24 hrs by MTT assay; type: functional, cell-based; conditions: HCT-116, 24 h
[15] = test system: Rhizoctonia solani; assay: Antifungal activity Rhizoctonia solani assessed as fungal growth inhibition measured after 4 to 8 days; type: functional, organism-based
[16] = test system: BGC-823; assay: Cytotoxicity against human BGC-823 cells assessed as reduction in cell viability incubated for 24 hrs by MTT assay; type: functional, cell-based; conditions: BGC-823, 24 h
[17] = biological target: Telomerase reverse transcriptase (Homo sapiens, UniProt O14746); assay: Inhibition of telomerase (unknown origin)
Chain of Telomerase reverse transcriptase (O14746 whole entry): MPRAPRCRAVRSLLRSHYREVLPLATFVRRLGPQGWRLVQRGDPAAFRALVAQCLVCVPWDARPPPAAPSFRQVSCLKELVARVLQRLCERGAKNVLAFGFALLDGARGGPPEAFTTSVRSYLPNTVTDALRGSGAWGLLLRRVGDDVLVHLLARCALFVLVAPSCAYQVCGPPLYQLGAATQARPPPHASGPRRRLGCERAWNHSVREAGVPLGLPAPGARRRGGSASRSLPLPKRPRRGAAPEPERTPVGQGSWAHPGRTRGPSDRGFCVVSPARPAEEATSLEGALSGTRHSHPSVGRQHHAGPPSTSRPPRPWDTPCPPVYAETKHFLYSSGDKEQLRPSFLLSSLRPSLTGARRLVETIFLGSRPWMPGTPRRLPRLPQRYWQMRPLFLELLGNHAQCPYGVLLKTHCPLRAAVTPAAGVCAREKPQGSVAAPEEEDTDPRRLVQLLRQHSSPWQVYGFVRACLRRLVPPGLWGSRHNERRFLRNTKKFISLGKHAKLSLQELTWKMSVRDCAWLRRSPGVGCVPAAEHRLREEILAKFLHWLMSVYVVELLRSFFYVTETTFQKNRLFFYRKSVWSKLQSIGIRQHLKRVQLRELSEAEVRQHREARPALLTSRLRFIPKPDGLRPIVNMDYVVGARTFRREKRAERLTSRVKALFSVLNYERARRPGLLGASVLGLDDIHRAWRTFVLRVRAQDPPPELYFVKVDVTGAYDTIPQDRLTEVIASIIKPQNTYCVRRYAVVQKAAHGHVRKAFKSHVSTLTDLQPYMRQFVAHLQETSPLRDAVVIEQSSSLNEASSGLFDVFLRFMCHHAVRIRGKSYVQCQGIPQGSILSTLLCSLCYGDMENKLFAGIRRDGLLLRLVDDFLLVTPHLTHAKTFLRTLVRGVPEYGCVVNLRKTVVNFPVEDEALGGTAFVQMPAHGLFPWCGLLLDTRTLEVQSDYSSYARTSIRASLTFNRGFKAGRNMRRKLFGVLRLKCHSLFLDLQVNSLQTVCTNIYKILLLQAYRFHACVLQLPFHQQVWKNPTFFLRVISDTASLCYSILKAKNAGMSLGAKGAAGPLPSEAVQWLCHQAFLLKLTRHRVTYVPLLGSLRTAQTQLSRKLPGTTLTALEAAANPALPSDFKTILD

[18] = test system: HepG2; assay: Cytotoxicity against human HepG2 cells assessed as reduction in cell viability incubated for 72 hrs by MTT assay; type: functional, cell-based; conditions: HepG2, 72 h
[19] = biological target: Coagulation factor X (Homo sapiens, UniProt P00742); assay: Inhibition of human factor Xa
Chain of Coagulation factor X (P00742 41-179 limits assumed): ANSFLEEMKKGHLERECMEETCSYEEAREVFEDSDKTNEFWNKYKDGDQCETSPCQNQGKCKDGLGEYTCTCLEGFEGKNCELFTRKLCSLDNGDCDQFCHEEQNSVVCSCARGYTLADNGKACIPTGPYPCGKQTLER
Chain of Coagulation factor X (P00742 235-488 limits assumed): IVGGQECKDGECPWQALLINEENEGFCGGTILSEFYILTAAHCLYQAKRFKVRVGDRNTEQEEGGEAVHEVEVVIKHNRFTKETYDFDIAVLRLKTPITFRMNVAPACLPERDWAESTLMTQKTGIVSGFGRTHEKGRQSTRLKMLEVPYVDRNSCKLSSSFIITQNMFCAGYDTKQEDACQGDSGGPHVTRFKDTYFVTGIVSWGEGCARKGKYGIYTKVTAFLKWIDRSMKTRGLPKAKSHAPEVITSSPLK

[20] = test system: MCF7; assay: Antiproliferative activity against human MCF7 cells assessed as inhibition of cell growth at 10 uM incubated for 48 hrs by SRB assay relative to control; type: functional; set-up: scale not given: the % may be the effect or the level left
[21] = test system: PC-3; assay: Antiproliferative activity against human PC-3 cells assessed as reduction in cell viability incubated for 24 hrs by MTT assay; type: functional, cell-based; conditions: PC-3, 24 h
[22] = test system: HeLa; assay: Antiproliferative activity against human HeLa cells assessed as reduction in cell viability incubated for 24 hrs by MTT assay; type: functional, cell-based
[23] = test system: HT-29; assay: Antiproliferative activity against human HT-29 cells assessed as reduction in cell viability incubated for 24 hrs by MTT assay; type: functional, cell-based; conditions: HT-29, 24 h
[24] = test system: H322; assay: Antiproliferative activity against human H322 cells assessed as reduction in cell viability incubated for 48 hrs by SRB assay; type: functional, cell-based; conditions: NCI-H322, 48 h
[25] = test system: A549; assay: Antiproliferative activity against human A549 cells assessed as reduction in cell viability incubated for 48 hrs by SRB assay; type: functional, cell-based; conditions: A549, 48 h
[26] = biological target: Histone deacetylase 1 (Homo sapiens, UniProt Q13547); assay: Inhibition of human recombinant HDAC1
Chain of Histone deacetylase 1 (Q13547 whole entry): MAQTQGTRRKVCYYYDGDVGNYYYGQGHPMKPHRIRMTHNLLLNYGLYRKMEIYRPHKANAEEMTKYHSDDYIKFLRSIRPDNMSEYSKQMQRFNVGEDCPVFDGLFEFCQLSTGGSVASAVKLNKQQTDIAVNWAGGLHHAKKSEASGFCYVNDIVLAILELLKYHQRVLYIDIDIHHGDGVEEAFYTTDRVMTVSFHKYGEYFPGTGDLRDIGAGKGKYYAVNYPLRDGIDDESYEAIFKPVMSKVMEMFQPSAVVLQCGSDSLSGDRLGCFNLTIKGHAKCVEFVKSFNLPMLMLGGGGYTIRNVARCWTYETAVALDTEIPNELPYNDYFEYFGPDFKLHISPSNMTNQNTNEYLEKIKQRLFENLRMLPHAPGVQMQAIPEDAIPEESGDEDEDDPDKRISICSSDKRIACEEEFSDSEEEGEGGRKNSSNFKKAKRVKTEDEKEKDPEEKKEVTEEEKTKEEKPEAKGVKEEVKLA

[27] = biological target: Histone deacetylase 3 (Homo sapiens, UniProt O15379); assay: Inhibition of human recombinant HDAC3
Chain of Histone deacetylase 3 (O15379 whole entry): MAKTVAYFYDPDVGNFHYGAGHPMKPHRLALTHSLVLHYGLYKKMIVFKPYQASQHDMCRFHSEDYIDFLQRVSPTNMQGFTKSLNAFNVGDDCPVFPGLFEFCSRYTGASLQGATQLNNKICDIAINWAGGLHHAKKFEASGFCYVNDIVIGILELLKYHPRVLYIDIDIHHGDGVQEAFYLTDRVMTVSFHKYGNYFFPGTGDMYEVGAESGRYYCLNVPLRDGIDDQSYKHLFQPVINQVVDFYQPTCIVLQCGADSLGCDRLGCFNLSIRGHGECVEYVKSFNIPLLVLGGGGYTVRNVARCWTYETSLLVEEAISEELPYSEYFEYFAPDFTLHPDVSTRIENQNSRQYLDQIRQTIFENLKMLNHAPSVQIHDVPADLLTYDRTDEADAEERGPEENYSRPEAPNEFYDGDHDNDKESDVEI

[28] = biological target: Histone deacetylase 2 (Homo sapiens, UniProt Q92769); assay: Inhibition of human recombinant HDAC2
Chain of Histone deacetylase 2 (Q92769 whole entry): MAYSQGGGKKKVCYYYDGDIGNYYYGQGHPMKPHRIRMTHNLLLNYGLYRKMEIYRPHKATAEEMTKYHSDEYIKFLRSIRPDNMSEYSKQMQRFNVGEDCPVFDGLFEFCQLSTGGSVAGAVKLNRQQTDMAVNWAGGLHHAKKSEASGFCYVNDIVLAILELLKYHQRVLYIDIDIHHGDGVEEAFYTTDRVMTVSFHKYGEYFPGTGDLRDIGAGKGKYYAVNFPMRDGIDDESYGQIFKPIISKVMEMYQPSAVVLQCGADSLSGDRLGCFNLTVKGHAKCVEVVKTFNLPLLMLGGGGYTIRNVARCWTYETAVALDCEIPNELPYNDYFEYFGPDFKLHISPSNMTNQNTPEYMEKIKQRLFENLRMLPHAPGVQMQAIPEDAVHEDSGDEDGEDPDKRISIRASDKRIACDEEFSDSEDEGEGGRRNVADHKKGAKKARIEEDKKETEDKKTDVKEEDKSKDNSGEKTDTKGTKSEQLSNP

[29] = Antiproliferative activity against mouse […] cells assessed as inhibition of cell growth incubated for 48 hrs by MTT assay; type: functional, cell-based; conditions: time 48 hrs, read-out: ED50 (the source's name)
[30] = test system: A-375; assay: Cytotoxicity against human A-375 cells assessed as reduction in cell growth measured after 24 hrs by MTT assay; type: functional, cell-based; conditions: A-375, 24 h
[31] = test system: FaDu; assay: Antiproliferative activity against human FaDu cells assessed as inhibition of cell growth incubated for 72 hrs by 3H-thymidine incorporation assay; type: functional, cell-based
[32] = test system: A2780; assay: Antiproliferative activity against human A2780 cells assessed as reduction in cell growth incubated for 72 hrs by MTT assay; type: functional, cell-based; conditions: A2780, 72 h

SMILES: c1cn2cc(-c3ccc4cn[nH]c4c3)nc(Nc3ccc(N4CCOCC4)cc3)c2n1 [ENTOSPLETINIB]
- IC50 [1]: > 10 µM
- IC50 [2]: > 10 µM
- IC50 [3]: 8.3 µM
- IC50 [4]: > 10 µM
- IC50 [5]: > 10 µM
- IC50 [6]: 6.26 µM
- IC50 [7]: > 10 µM
- IC50 [8]: 6.86 µM
- IC50 [9]: > 10 µM

- inhibition [10]: 93.3%
- inhibition [11]: 92.5%
SMILES: Cn1cc(-c2cnc3ccn(S(=O)(=O)c4ccccc4)c3n2)cn1

SMILES: CC(C)N1C[C@H]2C[C@@H]1CN2c1ccc(Nc2nc(-c3ccc4cn[nH]c4c3)cn3ccnc23)cc1
- IC50 [1]: 0.76 µM
- IC50 [2]: 9.17 µM
- IC50 [3]: 1.53 µM
- IC50 [4]: 1.48 µM
- IC50 [5]: 0.83 µM
- IC50 [6]: 0.72 µM
- IC50 [7]: 1.96 µM
- IC50 [8]: 7.39 µM
- IC50 [9]: 1.01 µM

SMILES: O=[N+]([O-])c1cccc(-c2cnc3cccnc3n2)c1
- IC50 [12]: 1.89 µM
- IC50 [13]: 0.466 µM

- IC50 [14]: 0.079 µM
SMILES: C[C@@H]1[C@]2(O[C@H]3C=C4[C@@H]5CC[C@H]6Cc7nc8c(nc7C[C@]6(C)[C@H]5C[C@@H](O)[C@]4(C)[C@]31O)C[C@@H]1CC[C@H]3C4=CC5O[C@@]6(CCC(C)(C)O6)[C@@H](C)[C@@H]5[C@@]4(C)[C@H](O)C[C@@H]3[C@@]1(C)C8)O[C@@](C)(COC(=O)CNC(=O)Cc1cc(=O)oc3cc(N(C)C)ccc13)C[C@H]2O (some centres undefined)

SMILES: Cc1cnc(COC(=O)c2ccccc2)cn1
- EC50 [15]: 0.021 µg/mL (≈ 0.092 µM)

SMILES: CC(C)(O)CCC[C@](C)(O)C1CC[C@]2(C)[C@@H]1[C@H](O)C[C@@H]1[C@@]3(C)Cc4nccnc4C(C)(C)[C@@H]3CC[C@]12C (some centres undefined)
- IC50 [16]: 11.5 µM

- IC50 [17]: 1.24 µM
SMILES: Brc1ccc(CSc2nnc(-c3cnccn3)s2)cc1
- IC50 [18]: 0.78 µM

- IC50 [19]: 0.00061 µM
SMILES: O=C1CN(S(=O)(=O)c2ccc3cc(Cl)ccc3c2)CC2(CO)NC3(CCN(c4ccncc4)CC3)CN12 (centres undefined)

SMILES: COc1nccc2c1N1C(=O)c3cc4ccccc4n3C(=O)C1C2 (centres undefined)
- Activity [20]: 50.9%

- IC50 [21]: 0.18 µM
- IC50 [22]: 0.09 µM
- IC50 [23]: 0.06 µM
SMILES: CN(CCCN(C)CCN1C(=O)c2cccc3c(N)c(N)cc(c23)C1=O)CCN1C(=O)c2cccc3c(N)c(N)cc(c23)C1=O

- IC50 [24]: 50.6 µM
- IC50 [25]: 49.7 µM
SMILES: CCn1c(-c2ccc(OC)cc2)cn2nc(-c3ccc(OC)cc3)cc2c1=O

- IC50 [26]: 0.07 µM
- IC50 [27]: 6.1 µM
- IC50 [28]: 0.26 µM
SMILES: CN1CCN(c2cnc(C(=O)Nc3cc(-c4cccs4)ccc3[N+](=O)[O-])cn2)CC1

SMILES: C[C@@H]1[C@@]2(CC[C@](C)(O)CO2)O[C@H]2C=C3[C@@H]4[C@@H](O)C[C@H]5Cc6nc7c(nc6C[C@]5(C)[C@H]4C[C@@H](O)[C@]3(C)[C@]21O)C[C@@H]1CC[C@@H]2[C@H](CC(=O)[C@]23C[C@@H]2O[C@]4(CCC(C)(C)O4)[C@@H](C)[C@@H]2[C@]3(C)O)[C@@]1(C)C7 [RITTERAZINE D]
- EC50 [29]: 0.00017 µM

SMILES: Cc1cccc(-c2cnc3cccnc3n2)c1
- IC50 [12]: 0.5 µM
- IC50 [13]: 0.89 µM

- IC50 [21]: 0.53 µM
- IC50 [22]: 0.2 µM
- IC50 [23]: 0.02 µM
SMILES: O=C1c2cccc3c2c(cc2nccnc23)C(=O)N1CCNCCCNCCN1C(=O)c2cccc3c2c(cc2nccnc23)C1=O

- IC50 [32]: 15.7 µM
- IC50 [23]: 22.7 µM
SMILES: CC1c2nccnc2C[C@]2(C)[C@H]3C(=O)C=C4[C@@H]5[C@@H](C)[C@H](C)CC[C@]5(C)CC[C@@]4(C)[C@]3(C)CC[C@@H]12 (some centres undefined)
- IC50 [30]: 12 µM
- IC50 [31]: > 30 µM

SMILES: Fc1cccc(-c2cnc3cccnc3n2)c1
- IC50 [12]: 0.583 µM
- IC50 [13]: 0.8 µM
